Three substances from patent US11957739B2, “Compositions and methods for treating cancer using RHOA dominant negative forms” (Dana-Farber Cancer Institute, Inc., priority 2017, dated 2024) can be followed below.

The test system of one assay is cells with intact CDH1. Description: Ectopic expression of RHOA dominant negative forms in cells with intact CDH1. The format is cell-based. The source says: (§1) Diffuse Gastric Cancer (DGC) is a highly lethal variant of gastric cancer, which is prone to early invasion and metastasis, and lacks effective molecularly targeted therapies. DGC initiation typically follows loss of tumor suppressor CDH1 which encodes the cellular adhesion protein E-cadherin. Reduction in and/or loss of E-cadherin (CDH1) is the key hallmark of invasive lobular breast cancer and loss-of-function mutations targeting CDH1 are present in 50%-60% of invasive lobular breast cancer and are believed to be an early event often observed in matching lobular carcinoma in situ (McCart Reed et al. (2015) Breast Cancer Res. 17:12). […] These findings indicate that RHOA dominant negative forms can be used as an effective therapy for DGC and lobular breast cancer as well as other cancers with the EMT phenotype.

The next assay has as its system CDH1-null cells. In words: Ectopic expression of RHOA dominant negative forms in CDH1-null cells. The format is cell-based.
From the text: as §1

Assay [1] concerns CDH1-null stomach organoids. Description: RHOA ectopic expression in isogenic stomach organoids after tamoxifen-induced E-cadherin loss. The format is cell-based, mouse. The conditions noted are these: ectopic expression by lentivirus; Mist1CreER, Cdh1F/F organoids treated with tamoxifen to induce E-cadherin loss. How it is done: Mist1CreER, Cdh1^F/F organoids were infected with plx307 lenti-EGFP/RHOA-WT/RHO-T19N virus, and the stably infected organoids were selected by adding puro for 1 week. The cells were then treated with or without tamoxifen to activate Cre to induce E-cadherin loss. The RHOA ectopic expression and E-Cadherin loss were validated both Western blot and Tomato/GFP color switch determinations.
Mist1-CreERT2, Cdh1flox/flox, Tomation/GFP mice, which carry conditional alleles with loxP sites flanking exon 2-3 of Cdh1, were kindly provided by Timothy C. Wang at Columbia University. Cre recombinase was activated by oral administration of tamoxifen (Sigma, T5648) TAM (1-5 mg/0.2 ml corn oil, as indicated). All animal studies and procedures were approved by the ethics committees at Dana-Farber Cancer Institute.
The protocol as previously described in Miyoshi et al. (2013) Nat. Prot. 8:2471-2482 was performed as follows: Euthanize mice using a chemical reagent, open the stomach longitudinally and roughly remove contents on the paper towel. Rinse the tissue with ice cold PBS in a 90 mm petri dish, then wash the tissue with […] ice cold PBS in a 50 ml centrifuge tube by vigorous shaking. After washing, place the tissue in a 35 mm petri dish and bring the dish to a biological hood and mince the tissue with fine scissors. […]

For assay [2], the system named is CDH1-null breast epithelial MCF10A cells. In words: Cell titer glo assay in MCF10A-CDH1-KO cells with Dox-inducible RHOA mutant virus. The format is cell-based. The conditions noted are these: Dox-inducible expression. How it is done:
(§2) Isogenic MCF10A-CDH1-intact cells were infected with different constitutive RHOA mutant virus and the stably infected cells were selected by adding puro for 1 week. The cells were then plated in 96-well plates for analysis using a cell titer glo assay. The MCF10A-CDH1-K0 cells were infected with different Dox-inducible RHOA mutant viruses and the stably-infected cells were selected by adding puro for 1 week. The cells were then plated in 96-well plates with Dox induction for cell titer glo assay analysis.
(§3) Cell viability assay was performed by following the protocol of CellTiter-Glo® (Promega, Cat #G7570).
A general note: In ATP-based viability assays light output follows the ATP content of the culture.

In another assay the test system is CDH1-intact MCF10A cells. In words: Cell titer glo assay in isogenic MCF10A-CDH1-intact cells with constitutive RHOA mutant virus. The format is cell-based. The conditions noted are these: constitutive expression. On the procedure:
as §2, §3

For the next assay, the system named is NUGC4 tumor. In words: NUGC4 xenograft tumor growth with Dox-induced mutant RHOA expression. The format is in vivo. The note with it: E-cadherin loss DGC cells in flank of nude mice; Dox food after 2 weeks; P<0.0001 Ctrl vs T19N. How it is done:
Diffuse gastric cancer (DGC) NUGC4 cells were confirmed for total E-cadherin loss by Western blot analysis. The cells were then stably infected with Dox-inducible lenti-RHOA virus using puro selection. Three million NUGC4 cells were injected into the flank of nude mice. After 2 weeks, regular food was changed to food with Dox in order to induce mutant RHOA expression. N=3 mice for each group. P<0.0001: Ctrl-VS-T19N.
(§4) The 4-week-old male nude mice (BALB/cA-nu (nu/nu)) were injected subcutaneously at each flank with cells infected with dox inducible control or RHOA mutant virus. All animals were maintained and used in accordance with the guidelines of the Institutional Animal Care and Use Committee of Dana-Farber Cancer Institute.

The next assay deals with MKN45 tumor. In words: MKN45 xenograft tumor growth with Dox-induced mutant RHOA expression. The format is in vivo. The conditions noted are these: E-cadherin loss diffuse adenocarcinoma cells in flank of nude mice; Dox food after 2 weeks; P<0.0001 Ctrl vs T19N. How it is done: The diffuse adenocarcinoma MKN45 cells were confirmed for total E-cadherin loss by Western blot analysis. The cells were then stably infected with Dox-inducible lenti-RHOA virus using puro selection. Three million MKN45 cells were injected into the flank of nude mice. After 2 weeks, regular food was changed to food with Dox in order to induce mutant RHOA expression. N=3 mice for each group. P<0.0001: Ctrl-VS-T19N.
as §4

“G17E: Human RHOA G17E dominant negative form (SEQ ID NO: 3), ectopically expressed”: the “inhibition of proliferation and induction of cell-death in cells with intact CDH1” value (shortened to “inhibition”) in the assay on cells with intact CDH1 is “not in cells with intact CDH1”. Besides, in the assay with CDH1-null cells, the “cell-death in CDH1-null cells” value is reported as “induction of cell-death” and the “proliferation of CDH1-null cells” value is given as “significant inhibition of proliferation”.
On to “G17V: Human RHOA G17V dominant negative form (SEQ ID NO: 2), ectopically expressed”, for which, in the assay on cells with intact CDH1, the “inhibition” value is “not in cells with intact CDH1”. Moreover, in the assay with CDH1-null cells, the “cell-death in CDH1-null cells” value is reported as “induction of cell-death” and the “proliferation of CDH1-null cells” value is given as “significant inhibition of proliferation”.
With “RHOA-T19N: Human RHOA T19N dominant negative form (SEQ ID NO: 1), ectopically expressed from lentivirus”, in assay [1], the “killing of CDH1-null stomach organoids” value is “specifically kills”. For the same substance, the “inhibition” value with cells with intact CDH1 is recorded as “not in cells with intact CDH1”. In addition, in the assay with CDH1-null cells, the “cell-death in CDH1-null cells” value is “induction of cell-death” and the “proliferation of CDH1-null cells” value is “significant inhibition of proliferation”. The “killing of CDH1-null MCF10A cells” value in assay [2] is on record as “specifically kills”. For the same substance, in the assay with CDH1-intact MCF10A cells, the “effect on CDH1-intact MCF10A cells” value is reported as “spares”. The NUGC4 tumor growth entry in the assay with NUGC4 tumor is reported as “significantly inhibit”. Further, the MKN45 tumor growth result in the assay on MKN45 tumor is “significantly inhibit”.
